“And” between values parts separate entries of the source, which are not always exact repeats. Equal values may be shown once.
Assays:
[1] = tested on: soybean rust disease; test: Field trial: efficacy on naturally infected soybean, visual estimation of degree of infection on leaves; type: in vivo, Glycine max
Method: (§1) In the tables presented below, the following terms have the following meaning:
Field trial was conducted to evaluate the effect and efficacy of silthiofam on soybean rust disease on soybean (Glycine max) wherein plants were naturally infected by the disease.
The trial was divided in the following […]:
one treatment where plants were left untreated and in which natural progression of the disease can be observed;
two treatments with silthiofam alone in different dosage amounts;
and four treatments where silthiofam was applied with other compounds, namely tagatose and chitosan in different dosage ratios.
Each treatment was applied on a plot of 6 ft*30 ft in size and was repeated in 4 replicates.
(§2) Silthiofam compositions used in this trial were prepared from the suspension concentrate containing 125 g/L of silthiofam, diluted with water to predetermined concentration and sprayed on the plants in the predetermined amounts.
For each treatment, two applications of respective treatment were made with 19 days interval between. First application was made when soybean plant reached stage BBCH 64, and the second one when plant reached stage BBCH 73. Growth stages were defined according to Compendium of Growth Stage Identification Keys for Mono- and Dicotyledonous Plants, Extended BBCH scale, 2nd Edition 1997, ISBN 3-9520749-3-4.
(§3) Method used for evaluation of disease spread was visual estimation of degree of infection on leaves.

[2] = tested on: Phakopsora pachyrhizi; test: Glasshouse pot trial: efficacy on soybean rust on soybean (Glycine max), visual estimation of degree of infection on leaves; type: in vivo
Method: as §1
Glasshouse pot trials were conducted to evaluate the effect and efficacy of silthiofam on soybean rust disease on soybean (Glycine max).
The trial was divided in 11 treatments. In 4 of the treatments, silthiofam was applied in different amounts.
as §2
In two of the treatments, silthiofam was applied in combination with additional ingredients.
First combination was of silthiofam and chitosan, wherein silthiofam was applied in an amount of 250 g/ha on the plant first and chitosan was applied subsequently in an amount of 200 g/ha.
Second combination was a combination of silthiofam and tagatose, wherein silthiofam was applied in an amount of 250 g/ha simultaneously with tagatose in an amount of 200 g/ha.
Further 6 treatments were current market available treatments of soybean rust applied in the label prescribed dose, wherein the compositions used were prepared from commercially available products prepared according to the respective label instructions and sprayed on the plants.
One treatment of the trial consisted of fungi inoculated plants which received no treatment.
Soybean plants were treated two times with silthiofam and other treatments. First treatment was applied when soybean plants reached stage BBCH16 and the second treatment was applied when soybean plants reached stage BBCH61. Growth stages were defined according to Compendium of Growth Stage Identification Keys for Mono- and Dicotyledonous Plants, Extended BBCH scale, 2nd Edition 1997, ISBN 3-9520749-3-4.
After silthiofam and other treatments were applied first time, plants were inoculated with Phakopsora pachyrhizi spores and evaluation of leaves condition and disease spread was done every 7 days.
as §3
The experimental design of the pot trial was randomized design with 4 pot replications per treatment applied, wherein six soybean plants were planted per pot.
Treatments were the following:
Treatment 1: Plant inoculated with P. pachyrhizi, no treatment applied
Treatment 2: Treatment with flutriafol and azoxystrobin mixture, applied in concentration of 31.25 g flutriafol/ha and 37.5 g azoxystrobin/ha
Treatment 3: Silthiofam treatment applied in 250 g silthiofam/ha
Treatment 4: Silthiofam treatment applied in 500 g silthiofam/ha
Treatment 5: Silthiofam treatment applied in 250 g silthiofam/ha and 200 g/ha of tagatose
Treatment 6: Silthiofam treatment applied in 250 g silthiofam/ha and 200 g/ha of chitosan
Treatment 7: Mancozeb applied in 1.68 kg mancozeb/ha
Treatment 8: Chlorothalonil applied in 626.4 g chlorothalonil/ha
Treatment 9: Azoxystrobin applied in 37.5 g azoxystrobin/ha
Treatment 10: Boscalid applied in 294 g boscalid/ha
Treatment 11: Prothioconazole and tebuconazole mixture applied as 42 g prothioconazole/ha and 84 g tebuconazole/ha

[3] = tested on: Phakopsora pachyrhizi; test: as above; type: in vivo; conditions: general statement; Phakopsora pachyrhizi and P. meibomiae

C=CCNC(=O)c1c([Si](C)(C)C)sc(C)c1C [Silthiofam, N-allyl-4,5-dimethyl-2-(trimethylsilyl)thiophene-3-carboxamide]
% efficacy ([1]; silthiofam 125 g/ha, 14/14 d after first/last application, LEALOW): 88.9% and 84.3% and 63.4% and 77.3%
% efficacy ([1]; silthiofam 125 g/ha, 14/14 d after first/last application, LEAMID): 95.5% and 92.9% and 95.0% and 90.9%
% efficacy ([1]; silthiofam 125 g/ha, 14/14 d after first/last application, LEAUPP): 0.0%
% efficacy ([1]; silthiofam 125 g/ha, 20/1 d after first/last application, LEALOW): 68.2% and 56.0% and 64.1% and 69.1%
% efficacy ([1]; silthiofam 125 g/ha, 20/1 d after first/last application, LEAMID): 83.3% and 78.2% and 80.4%
% efficacy ([1]; silthiofam 125 g/ha, 20/1 d after first/last application, LEAUPP): 90.9% and 88.9% and 100.0% and 94.4%
% efficacy ([1]; silthiofam 125 g/ha, 27/8 d after first/last application, LEALOW): 35.00% and 42.00% and 36.00%
% efficacy ([1]; silthiofam 125 g/ha, 27/8 d after first/last application, LEAMID): 77.9% and 75.0% and 78.6% and 80.3%
% efficacy ([1]; silthiofam 125 g/ha, 27/8 d after first/last application, LEAUPP): 89.3% and 85.7% and 93.3% and 95.2%
% efficacy ([1]; silthiofam 125 g/ha, 34/15 d after first/last application, LEALOW): 45.0% and 35.0% and 52.0% and 55.0%
% efficacy ([1]; silthiofam 125 g/ha, 34/15 d after first/last application, LEAMID): 72.0% and 67.0% and 72.7%
% efficacy ([1]; silthiofam 125 g/ha, 34/15 d after first/last application, LEAUPP): 90.9% and 86.2% and 92.2%
% efficacy ([1]; silthiofam 250 g/ha, 14/14 d after first/last application, LEALOW): 66.7% and 56.9% and 73.2% and 59.1%
% efficacy ([1]; silthiofam 250 g/ha, 14/14 d after first/last application, LEAMID): 81.8% and 78.6% and 70.0% and 63.6%
% efficacy ([1]; silthiofam 250 g/ha, 14/14 d after first/last application, LEAUPP): 0.0%
% efficacy ([1]; silthiofam 250 g/ha, 20/1 d after first/last application, LEALOW): 60.2% and 45.3% and 57.7% and 65.4%
% efficacy ([1]; silthiofam 250 g/ha, 20/1 d after first/last application, LEAMID): 68.8% and 67.3% and 78.4%
% efficacy ([1]; silthiofam 250 g/ha, 20/1 d after first/last application, LEAUPP): 81.8% and 83.3% and 90.0% and 100.0%
% efficacy ([1]; silthiofam 250 g/ha, 27/8 d after first/last application, LEALOW): 55.00% and 65.00% and 58.00% and 48.00%
% efficacy ([1]; silthiofam 250 g/ha, 27/8 d after first/last application, LEAMID): 61.8% and 61.1% and 68.6% and 62.1%
% efficacy ([1]; silthiofam 250 g/ha, 27/8 d after first/last application, LEAUPP): 82.1% and 77.1% and 83.3% and 88.1%
% efficacy ([1]; silthiofam 250 g/ha, 34/15 d after first/last application, LEALOW): 25.0% and 22.0% and 30.0% and 35.0%
% efficacy ([1]; silthiofam 250 g/ha, 34/15 d after first/last application, LEAMID): 62.0% and 58.0% and 56.8%
% efficacy ([1]; silthiofam 250 g/ha, 34/15 d after first/last application, LEAUPP): 67.3% and 62.1% and 54.5% and 57.8%
% efficacy ([2]; silthiofam 250 g/ha, 7/7 d after first/last application, 19 d after planting, LEALOW): 71.5% and 90.9% and 93.6% and 88.9%
% efficacy ([2]; silthiofam 250 g/ha, 7/7 d after first/last application, 19 d after planting, LEAMID): 93.4% and 100.0% and 81.9% and 85.0%
% efficacy ([2]; silthiofam 250 g/ha, 7/7 d after first/last application, 19 d after planting, LEAUPP): 100.0%
% efficacy ([2]; silthiofam 250 g/ha, 14/14 d after first/last application, 26 d after planting, LEALOW): 89.0% and 82.0% and 84.7% and 84.1%
% efficacy ([2]; silthiofam 250 g/ha, 14/14 d after first/last application, 26 d after planting, LEAMID): 95.0% and 91.2% and 92.0% and 89.4%
% efficacy ([2]; silthiofam 250 g/ha, 14/14 d after first/last application, 26 d after planting, LEAUPP): 100.0%
% efficacy ([2]; silthiofam 250 g/ha, 21/21 d after first/last application, 33 d after planting, LEALOW): 78.0% and 76.0% and 82.0% and 80.0%
% efficacy ([2]; silthiofam 250 g/ha, 21/21 d after first/last application, 33 d after planting, LEAMID): 92.0% and 89.0% and 90.0% and 88.0%
% efficacy ([2]; silthiofam 250 g/ha, 21/21 d after first/last application, 33 d after planting, LEAUPP): 100.0%
% efficacy ([2]; silthiofam 250 g/ha, 28/7 d after first/last application, 40 d after planting, LEALOW): 82.0% and 80.0% and 84.0%
% efficacy ([2]; silthiofam 250 g/ha, 28/7 d after first/last application, 40 d after planting, LEAMID): 92.0% and 88.0% and 90.0%
% efficacy ([2]; silthiofam 250 g/ha, 28/7 d after first/last application, 40 d after planting, LEAUPP): 100.0%
% efficacy ([2]; silthiofam 250 g/ha, 35/14 d after first/last application, 47 d after planting, LEAMID): 78.0% and 82.0% and 80.0% and 84.0%
% efficacy ([2]; silthiofam 250 g/ha, 35/14 d after first/last application, 47 d after planting, LEAUPP): 94.5% and 98.0% and 95.5% and 92.9%
% efficacy ([2]; silthiofam 250 g/ha, 42/21 d after first/last application, 54 d after planting, LEAMID): 48.0% and 54.0% and 59.0% and 52.0%
% efficacy ([2]; silthiofam 250 g/ha, 42/21 d after first/last application, 54 d after planting, LEAUPP): 86.0% and 85.0% and 89.0%
% efficacy ([2]; silthiofam 500 g/ha, 7/7 d after first/last application, 19 d after planting, LEALOW): 85.8% and 95.5% and 93.6% and 97.3%
% efficacy ([2]; silthiofam 500 g/ha, 7/7 d after first/last application, 19 d after planting, LEAMID): 93.4% and 94.5% and 100.0%
% efficacy ([2]; silthiofam 500 g/ha, 7/7 d after first/last application, 19 d after planting, LEAUPP): 100.0%
% efficacy ([2]; silthiofam 500 g/ha, 14/14 d after first/last application, 26 d after planting, LEALOW): 92.0% and 90.0% and 94.7% and 91.9%
% efficacy ([2]; silthiofam 500 g/ha, 14/14 d after first/last application, 26 d after planting, LEAMID): 99.0% and 96.8% and 97.9%
% efficacy ([2]; silthiofam 500 g/ha, 14/14 d after first/last application, 26 d after planting, LEAUPP): 100.0%
% efficacy ([2]; silthiofam 500 g/ha, 21/21 d after first/last application, 33 d after planting, LEALOW): 89.0% and 86.0% and 92.0%
% efficacy ([2]; silthiofam 500 g/ha, 21/21 d after first/last application, 33 d after planting, LEAMID): 96.0% and 95.0% and 97.0%
% efficacy ([2]; silthiofam 500 g/ha, 21/21 d after first/last application, 33 d after planting, LEAUPP): 100.0%
% efficacy ([2]; silthiofam 500 g/ha, 28/7 d after first/last application, 40 d after planting, LEALOW): 88.0% and 90.0% and 85.0%
% efficacy ([2]; silthiofam 500 g/ha, 28/7 d after first/last application, 40 d after planting, LEAMID): 95.0% and 93.0% and 92.0%
% efficacy ([2]; silthiofam 500 g/ha, 28/7 d after first/last application, 40 d after planting, LEAUPP): 100.0%
% efficacy ([2]; silthiofam 500 g/ha, 35/14 d after first/last application, 47 d after planting, LEAMID): 92.0% and 89.0% and 90.0% and 86.0%
% efficacy ([2]; silthiofam 500 g/ha, 35/14 d after first/last application, 47 d after planting, LEAUPP): 98.9% and 100.0% and 90.9%
% efficacy ([2]; silthiofam 500 g/ha, 42/21 d after first/last application, 54 d after planting, LEAMID): 79.0% and 72.0% and 80.0% and 82.0%
% efficacy ([2]; silthiofam 500 g/ha, 42/21 d after first/last application, 54 d after planting, LEAUPP): 92.0% and 90.0% and 95.0% and 93.0%
activity against soybean rust causing fungi [3]: high activity

Reference: patent publication US11197479B2, “Use of silthiofam for the treatment of soybean rust” (priority 2018, dated 2021)
